The assay has as its target human GPR40 receptor (Homo sapiens, UniProt O14842). The experiment in a line: Assay II: IP1 accumulation (IPOne HTRF) in 1321N1 cells stably expressing human GPR40. Type of assay: cell-based. The following applies: 1321N1 cells expressing human GPR40, stimulation 1 h at 37° C., 5% CO2, LiCl 50 mM. A digest of the protocol: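 1321N1 cells stably expressing human GPR40, seeded 24 h earlier, were stimulated with compound for 1 h at 37 °C in LiCl (50 mM) buffer, pH 7.4. IP1 measured by HTRF (665/615 ratio) after lysis and 1 h room temperature; pEC50 via IP1 reference curve and variable-slope sigmoidal fit.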
(In general: TR-FRET usually uses a lanthanide donor and a delayed reading to cut background.)

The values below come from US8642585B2, “Indanyloxydihydrobenzofuranylacetic acids” (Boehringer Ingelheim International GmbH, priority 2012, dated 2014).

The structures appear in SMILES notation. Where only a bound is given, the exact number is not on record here.

human GPR40 receptor, sequence (O14842 whole entry): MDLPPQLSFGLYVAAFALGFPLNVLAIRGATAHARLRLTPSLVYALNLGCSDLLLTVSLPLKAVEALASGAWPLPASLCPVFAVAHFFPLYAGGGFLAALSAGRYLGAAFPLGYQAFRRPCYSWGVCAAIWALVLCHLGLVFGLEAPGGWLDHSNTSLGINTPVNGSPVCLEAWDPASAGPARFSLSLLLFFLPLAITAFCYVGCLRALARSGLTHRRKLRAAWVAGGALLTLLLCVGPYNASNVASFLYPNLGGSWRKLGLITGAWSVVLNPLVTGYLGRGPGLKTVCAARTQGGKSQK

The term EC50 denotes the concentration giving half of the maximal effect. In turn, `Cn1nnnc1-c1c(F)cccc1-c1ccc(F)c2c1CC[C@H]2Oc1ccc2c(c1)OC[C@H]2CC(=O)O` [Example 103, 2-((3S)-6-((1R)-7-Fluoro-4-(3-fluoro-2-(1-methyl-1H-tetrazol-5-yl)phenyl)-2,3-dihydro-1H-inden-1-yloxy)-2,3-dihydrobenzofuran-3-yl)acetic acid] registered an EC50 of 1430 nM. `Cc1cc(-c2ccncc2)cc(C)c1-c1ccc(F)c2c1CC[C@H]2Oc1ccc2c(c1)OC[C@H]2CC(=O)O` [Example 104, {(S)-6-[(R)-4-(2,6-Dimethyl-4-pyridin-4-yl-phenyl)-7-fluoro-indan-1-yloxy]-2,3-dihydro-benzofuran-3-yl}-acetic acid]: it took 7 nM to reach a half-maximal effect (EC50). The same measure for `O=C(O)C[C@@H]1COc2cc(O[C@@H]3CCc4c(-c5cccnc5-c5ccoc5)ccc(F)c43)ccc21` [Example 105, {(S)-6-[(R)-7-Fluoro-4-(2-furan-3-yl-pyridin-3-yl)-indan-1-yloxy]-2,3-dihydro-benzofuran-3-yl}-acetic acid]: 582 nM; for `O=C(O)C[C@@H]1COc2cc(O[C@@H]3CCc4c(-c5cccnc5-c5ccccc5)ccc(F)c43)ccc21` [Example 106, {(S)-6-[(R)-7-Fluoro-4-(2-phenyl-pyridin-3-yl)-indan-1-yloxy]-2,3-dihydro-benzofuran-3-yl}-acetic acid]: 59 nM; for `Cc1cc(-c2cc(C)c(-c3ccc(F)c4c3CC[C@H]4Oc3ccc4c(c3)OC[C@H]4CC(=O)O)c(C)c2)ccn1` [Example 107, {(S)-6-[(R)-4-(2,6-Dimethyl-4-(2-methyl-pyridin-4-yl)-phenyl)-7-fluoro-indan-1-yloxy]-2,3-dihydro-benzofuran-3-yl}-acetic acid]: 4 nM. The same measure for `Cc1nn(C)c(C)c1-c1ncccc1-c1ccc(F)c2c1CC[C@H]2Oc1ccc2c(c1)OC[C@H]2CC(=O)O` [Example 108, {(S)-6-[(R)-7-Fluoro-4-[2-(1,3,5-trimethyl-pyrazol-4-yl)-pyridin-3-yl]-indan-1-yloxy]-2,3-dihydro-benzofuran-3-yl}-acetic acid]: over 10000 nM; for `Cc1cc(-c2c(C)nn(C)c2C)cc(C)c1-c1ccc(F)c2c1CC[C@H]2Oc1ccc2c(c1)OC[C@H]2CC(=O)O` [Example 109, {(S)-6-[(R)-4-(2,6-Dimethyl-4-(1,3,5-trimethyl-pyrazol-4-yl)-phenyl)-7-fluoro-indan-1-yloxy]-2,3-dihydro-benzofuran-3-yl}-acetic acid]: 8 nM. The same measure for `O=C(O)C[C@@H]1COc2cc(O[C@@H]3CCc4c(-c5cccnc5C5CCOCC5)ccc(F)c43)ccc21` [Example 110, {(S)-6-[(R)-7-Fluoro-4-(2-tetrahydropyran-4-yl-pyridin-3-yl)-indan-1-yloxy]-2,3-dihydro-benzofuran-3-yl}-acetic acid]: 351 nM. In turn, `Cc1cncc(-c2cc(C)c(-c3ccc(F)c4c3CC[C@H]4Oc3ccc4c(c3)OC[C@H]4CC(=O)O)c(C)c2)c1` [Example 111, {(S)-6-[(R)-4-(2,6-Dimethyl-4-(5-methyl-pyridin-3-yl)-phenyl)-7-fluoro-indan-1-yloxy]-2,3-dihydro-benzofuran-3-yl}-acetic acid] had an EC50 of 4 nM. `Cc1cc(-c2cccnc2)cc(C)c1-c1ccc(F)c2c1CC[C@H]2Oc1ccc2c(c1)OC[C@H]2CC(=O)O` [Example 112, {(S)-6-[(R)-4-(2,6-Dimethyl-4-pyridin-3-yl-phenyl)-7-fluoro-indan-1-yloxy]-2,3-dihydro-benzofuran-3-yl}-acetic acid]: the EC50 came out at 5 nM. The EC50 values of the last two compounds are within 1.5-fold of each other. The same measure for `Cc1cnc(-c2cc(C)c(-c3ccc(F)c4c3CC[C@H]4Oc3ccc4c(c3)OC[C@H]4CC(=O)O)c(C)c2)nc1` [Example 113, {(S)-6-[(R)-4-(2,6-Dimethyl-4-(5-methyl-pyrimidin-2-yl)-phenyl)-7-fluoro-indan-1-yloxy]-2,3-dihydro-benzofuran-3-yl}-acetic acid]: 1 nM. As for `Cc1cnc(-c2cc(C)c(-c3ccc(F)c4c3CC[C@H]4Oc3ccc4c(c3)OC[C@H]4CC(=O)O)c(C)c2)cn1` [Example 114, {(S)-6-[(R)-4-(2,6-Dimethyl-4-(5-methyl-pyrazin-2-yl)-phenyl)-7-fluoro-indan-1-yloxy]-2,3-dihydro-benzofuran-3-yl}-acetic acid], the midpoint of the response, the EC50, lay at 2 nM. Compared with the last compound, the EC50 is about 2-fold higher. The same measure for `Cc1cc(-c2cc(C)c(-c3ccc(F)c4c3CC[C@H]4Oc3ccc4c(c3)OC[C@H]4CC(=O)O)c(C)c2)nc(C)n1` [Example 115, {(S)-6-[(R)-4-(2,6-Dimethyl-4-(2,6-dimethyl-pyrimidin-4-yl)-phenyl)-7-fluoro-indan-1-yloxy]-2,3-dihydro-benzofuran-3-yl}-acetic acid]: 2 nM; for `COc1cc(-c2cc(C)c(-c3ccc(F)c4c3CC[C@H]4Oc3ccc4c(c3)OC[C@H]4CC(=O)O)c(C)c2)ccn1` [Example 116, {(S)-6-[(R)-4-(2,6-Dimethyl-4-(2-methoxy-pyridin-4-yl)-phenyl)-7-fluoro-indan-1-yloxy]-2,3-dihydro-benzofuran-3-yl}-acetic acid]: 3 nM; for `Cc1ccc(-c2cc(C)c(-c3ccc(F)c4c3CC[C@H]4Oc3ccc4c(c3)OC[C@H]4CC(=O)O)c(C)c2)cn1` [Example 117, {(S)-6-[(R)-4-(2,6-Dimethyl-4-(6-methyl-pyridin-3-yl)-phenyl)-7-fluoro-indan-1-yloxy]-2,3-dihydro-benzofuran-3-yl}-acetic acid]: 2 nM. The same measure for `Cc1cncc(-c2cc(C)c(-c3ccc(F)c4c3CC[C@H]4Oc3ccc4c(c3)OC[C@H]4CC(=O)O)c(C)c2)n1` [Example 118, {(S)-6-[(R)-4-(2,6-Dimethyl-4-(6-methyl-pyrazin-2-yl)-phenyl)-7-fluoro-indan-1-yloxy]-2,3-dihydro-benzofuran-3-yl}-acetic acid]: 2 nM; for `Cc1ccnc(-c2cc(C)c(-c3ccc(F)c4c3CC[C@H]4Oc3ccc4c(c3)OC[C@H]4CC(=O)O)c(C)c2)n1` [Example 119, {(S)-6-[(R)-4-(2,6-Dimethyl-4-(4-methyl-pyrimidin-2-yl)-phenyl)-7-fluoro-indan-1-yloxy]-2,3-dihydro-benzofuran-3-yl}-acetic acid]: 1 nM. The same measure for `Cc1ccc(-c2cc(C)c(-c3ccc(F)c4c3CC[C@H]4Oc3ccc4c(c3)OC[C@H]4CC(=O)O)c(C)c2)nn1` [Example 120, {(S)-6-[(R)-4-(2,6-Dimethyl-4-(6-methyl-pyridazin-3-yl)-phenyl)-7-fluoro-indan-1-yloxy]-2,3-dihydro-benzofuran-3-yl}-acetic acid]: 2 nM; for `Cc1cc(-c2cc(C)c(-c3ccc(F)c4c3CC[C@H]4Oc3ccc4c(c3)OC[C@H]4CC(=O)O)c(C)c2)cc(C)n1` [Example 121, {(S)-6-[(R)-4-(2,6-Dimethyl-4-(2,6-dimethyl-pyridin-4-yl)-phenyl)-7-fluoro-indan-1-yloxy]-2,3-dihydro-benzofuran-3-yl}-acetic acid]: 2 nM. In turn, `Cc1cc(-c2cnccn2)cc(C)c1-c1ccc(F)c2c1CC[C@H]2Oc1ccc2c(c1)OC[C@H]2CC(=O)O` [Example 122, {(S)-6-[(R)-4-(2,6-Dimethyl-4-pyrazin-2-yl-phenyl)-7-fluoro-indan-1-yloxy]-2,3-dihydro-benzofuran-3-yl}-acetic acid] registered an EC50 of 2 nM.

Regarding `Cc1cc(-c2cnc(C3CC3)cn2)cc(C)c1-c1ccc(F)c2c1CC[C@H]2Oc1ccc2c(c1)OC[C@H]2CC(=O)O` [Example 123, {(S)-6-[(R)-4-(2,6-Dimethyl-4-(5-cyclopropyl-pyrazin-2-yl)-phenyl)-7-fluoro-indan-1-yloxy]-2,3-dihydro-benzofuran-3-yl}-acetic acid], the EC50 was found to be 7 nM.

For `Cc1cccc(C)c1-c1ncccc1-c1ccc(F)c2c1CC[C@H]2Oc1ccc2c(c1)OC[C@H]2CC(=O)O` [Example 124, {(S)-6-[(R)-4-(2-(2,6-Dimethyl-phenyl)-pyridin-3-yl)-7-fluoro-indan-1-yloxy]-2,3-dihydro-benzofuran-3-yl}-acetic acid], the 50% effective concentration (EC50) turned out to be 339 nM. For the compound `CCc1ccc(-c2cc(C)c(-c3ccc(F)c4c3CC[C@H]4Oc3ccc4c(c3)OC[C@H]4CC(=O)O)c(C)c2)nn1` [Example 125, {(S)-6-[(R)-4-(2,6-Dimethyl-4-(6-ethyl-pyridazin-3-yl)-phenyl)-7-fluoro-indan-1-yloxy]-2,3-dihydro-benzofuran-3-yl}-acetic acid], the EC50 amounted to 4 nM. As to `COc1ccc(-c2cc(C)c(-c3ccc(F)c4c3CC[C@H]4Oc3ccc4c(c3)OC[C@H]4CC(=O)O)c(C)c2)cn1` [Example 126, {(S)-6-[(R)-4-(2,6-Dimethyl-4-(6-methoxy-pyridin-3-yl)-phenyl)-7-fluoro-indan-1-yloxy]-2,3-dihydro-benzofuran-3-yl}-acetic acid], the EC50 stood at 6 nM.

As to `O=C(O)C[C@@H]1COc2cc(O[C@@H]3CCc4c(-c5cccnc5N5CCCOCC5)ccc(F)c43)ccc21` [Example 127, {(S)-6-[(R)-7-Fluoro-4-(2-[1,4]oxazepan-4-yl-pyridin-3-yl)-indan-1-yloxy]-2,3-dihydro-benzofuran-3-yl}-acetic acid], the EC50 was determined as 48 nM. For the compound `O=C(O)C[C@@H]1COc2cc(O[C@@H]3CCc4c(-c5cccnc5N5CCOCC5)ccc(F)c43)ccc21` [Example 128, {(S)-6-[(R)-7-Fluoro-4-(2-morpholin-4-yl-pyridin-3-yl)-indan-1-yloxy]-2,3-dihydro-benzofuran-3-yl}-acetic acid], it took 288 nM to reach a half-maximal effect (EC50). This EC50 is about 6-fold higher than that of the compound before. In turn, `COc1cnnc(-c2cc(C)c(-c3ccc(F)c4c3CC[C@H]4Oc3ccc4c(c3)OC[C@H]4CC(=O)O)c(C)c2)c1` [Example 129, {(S)-6-[(R)-4-(2,6-Dimethyl-4-(5-methoxy-pyridazin-3-yl)-phenyl)-7-fluoro-indan-1-yloxy]-2,3-dihydro-benzofuran-3-yl}-acetic acid] had an EC50 of 4 nM. This EC50 lies about 72-fold lower than the previous one.
